Source: ChEMBL document CHEMBL2375234, “Rhazinilam-Leuconolam-Leuconoxine Alkaloids from Leuconotis griffithii” (J Nat Prod, 2013)
In brackets after ≈: the same amount, converted by molar mass.

Legend:
KB = experiment: Cytotoxicity against human KB cells; format: functional, cell-based
[1] = Inhibition of p-gp in multidrug-resistant human KB cells assessed as increase in vincristine-mediated cytotoxicity; format: cell-based

| SMILES | IC50 (KB) [µg/mL] | IC50 [1] [µg/mL] |
| --- | --- | --- |
| CC[C@@]12CCC(=O)Nc3ccccc3-c3ccn(c31)C(=O)C2 [NOR-RHAZINICINE] | 12 (≈ 40.8 µM) | – |
| CC[C@@]12CCCN3C(=O)C[C@@]4(O)c5ccccc5N(C(=O)CC1)C324 (some centres undefined) | 12 (≈ 36.8 µM) | – |
| CC[C@@]12CCCN3CC[C@@]4(O)c5ccccc5N(C(=O)CC1)C324 (some centres undefined) | – | 9.34 (≈ 29.9 µM) |
| CC[C@@]12CCCN3CC[C@H]4c5ccccc5N(C(=O)CC1)C432 (some centres undefined) | 12 (≈ 40.5 µM) | – |
